Key:
[1] = system: large (Lg) crabgrass; experiment: Test A preemergence; assay type: in vivo, Digitaria sanguinalis; conditions: for Crabgrass, Large plant response rating: 500 g ai/ha
Procedure, shortened: (§1)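 Injury scores run from 0, no effect, to 100, complete control, judged by eye against untreated plants roughly 10 days after treatment. Chemicals carried a surfactant in a non-phytotoxic solvent and went onto loam–sand soil preemergence or onto one- to two-leaf seedlings postemergence.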

[2] = system: velvetleaf; experiment: Test A preemergence; assay type: in vivo, Abutilon theophrasti; conditions: for Velvetleaf plant response rating (0 to 100 scale): 125 g ai/ha; for Velvetleaf plant response rating: 500 g ai/ha, 0 to 100 scale where 0 is no effect and 100 is complete control
Procedure, shortened: as §1

[3] = system: wheat; experiment: Test A postemergence; assay type: in vivo, Triticum aestivum; conditions: 0 to 100 scale where 0 is no effect and 100 is complete control; for Wheat plant response rating: 125 g ai/ha; for Plant response rating, Wheat: 500 g ai/ha
Procedure, shortened: as §1

[4] = system: morningglory; experiment: Test A postemergence; assay type: in vivo, Ipomoea spp.; conditions: 0 to 100 scale where 0 is no effect and 100 is complete control; for Morningglory plant response rating: 125 g ai/ha; for Plant response rating, Morningglory: 500 g ai/ha
Procedure, shortened: as §1

[5] = system: barnyardgrass; experiment: Test A postemergence; assay type: in vivo, Echinochloa crus-galli; conditions: 0 to 100 scale where 0 is no effect and 100 is complete control; for Barnyardgrass plant response rating: 125 g ai/ha; for Plant response rating, Barnyardgrass: 500 g ai/ha
Procedure, shortened: as §1

[6] = system: wheat; experiment: Test A preemergence; assay type: in vivo, Triticum aestivum; conditions: for Wheat plant response rating (0 to 100 scale): 125 g ai/ha; for Wheat plant response rating: 500 g ai/ha, 0 to 100 scale where 0 is no effect and 100 is complete control
Procedure, shortened: as §1

[7] = system: giant foxtail; experiment: Test A postemergence; assay type: in vivo, Setaria faberii; conditions: 0 to 100 scale where 0 is no effect and 100 is complete control; for Foxtail, Giant plant response rating: 125 g ai/ha; for Plant response rating, Foxtail, Giant: 500 g ai/ha
Procedure, shortened: as §1

[8] = system: giant foxtail; experiment: Test A preemergence; assay type: in vivo, Setaria faberii; conditions: for Foxtail, Giant plant response rating: 500 g ai/ha
Procedure, shortened: as §1

[9] = system: rice; experiment: Test B flooded paddy test; assay type: in vivo, Oryza sativa; conditions: Flood, 250 g ai/ha; 0 to 100 scale where 0 is no effect and 100 is complete control
Procedure, shortened: (§2)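 Plants at 2-leaf stage; pots flooded to 3 cm above soil and compound applied directly into paddy water, depth held throughout. After 13 to 15 days in greenhouse, visual rating versus controls on 0 (no effect) to 100 (complete control) scale.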

[10] = system: pigweed; experiment: Test A postemergence; assay type: in vivo, Amaranthus retroflexus; conditions: 0 to 100 scale where 0 is no effect and 100 is complete control; for Pigweed plant response rating: 125 g ai/ha; for Plant response rating, Pigweed: 500 g ai/ha
Procedure, shortened: as §1

[11] = system: Heteranthera limosa; experiment: Test B flooded paddy test; assay type: in vivo; conditions: Flood, 250 g ai/ha; 0 to 100 scale where 0 is no effect and 100 is complete control
Procedure, shortened: as §2

[12] = system: barnyardgrass; experiment: Test A preemergence; assay type: in vivo, Echinochloa crus-galli; conditions: for Barnyardgrass plant response rating: 500 g ai/ha
Procedure, shortened: as §1

[13] = system: morningglory; experiment: Test A preemergence; assay type: in vivo, Ipomoea spp.; conditions: for Morningglory plant response rating (0 to 100 scale): 125 g ai/ha; for Morningglory plant response rating: 500 g ai/ha, 0 to 100 scale where 0 is no effect and 100 is complete control
Procedure, shortened: as §1

[14] = system: pigweed; experiment: Test A preemergence; assay type: in vivo, Amaranthus retroflexus; conditions: for Pigweed plant response rating (0 to 100 scale): 125 g ai/ha; for Pigweed plant response rating: 500 g ai/ha, 0 to 100 scale where 0 is no effect and 100 is complete control
Procedure, shortened: as §1

[15] = system: barnyardgrass; experiment: Test B flooded paddy test; assay type: in vivo, Echinochloa crus-galli; conditions: Flood, 250 g ai/ha; 0 to 100 scale where 0 is no effect and 100 is complete control
Procedure, shortened: as §2

[16] = system: velvetleaf; experiment: Test A postemergence; assay type: in vivo, Abutilon theophrasti; conditions: 0 to 100 scale where 0 is no effect and 100 is complete control; for Velvetleaf plant response rating: 125 g ai/ha; for Plant response rating, Velvetleaf: 500 g ai/ha
Procedure, shortened: as §1

[17] = system: large (Lg) crabgrass; experiment: Test A postemergence; assay type: in vivo, Digitaria sanguinalis; conditions: 0 to 100 scale where 0 is no effect and 100 is complete control; for Crabgrass, Large plant response rating: 125 g ai/ha; for Plant response rating, Crabgrass, Large: 500 g ai/ha
Procedure, shortened: as §1

[18] = system: corn; experiment: Test A preemergence; assay type: in vivo, Zea mays; conditions: for Corn plant response rating: 500 g ai/ha
Procedure, shortened: as §1

[19] = system: sedge, umbrella; experiment: Test B flooded paddy test; assay type: in vivo, Cyperus difformis; conditions: Flood, 250 g ai/ha; 0 to 100 scale where 0 is no effect and 100 is complete control
Procedure, shortened: as §2

[20] = system: corn; experiment: Test A postemergence; assay type: in vivo, Zea mays; conditions: 0 to 100 scale where 0 is no effect and 100 is complete control; for Corn plant response rating: 125 g ai/ha; for Plant response rating, Corn: 500 g ai/ha
Procedure, shortened: as §1

[21] = 125 g ai/ha, 0 to 100 scale where 0 is no effect and 100 is complete control
[22] = 0 to 100 scale where 0 is no effect and 100 is complete control

Structure (SMILES)	Crabgrass, Large plant response rating [1, 22]	Velvetleaf plant response rating (0 to 100 scale) [2]	Velvetleaf plant response rating [2]	Wheat plant response rating [3]	Plant response rating, Wheat [3]	Morningglory plant response rating [4]	Plant response rating, Morningglory [4]	Barnyardgrass plant response rating [5]	Plant response rating, Barnyardgrass [5]	Wheat plant response rating (0 to 100 scale) [6]	Wheat plant response rating [6]	Foxtail, Giant plant response rating [7]	Plant response rating, Foxtail, Giant [7]	Foxtail, Giant plant response rating [8, 22]	Plant response rating, Rice [9]	Pigweed plant response rating [10]	Plant response rating, Pigweed [10]	Plant response rating, Ducksalad [11]	Barnyardgrass plant response rating [12, 22]	Morningglory plant response rating (0 to 100 scale) [13]	further results
N#Cc1cnc(Oc2cccc(C=O)c2-n2cc(Br)cn2)nc1 [Compound 174]	0	0	0	0	0	0	0	0	0	0	0	0	0	0	0	0	0	0	0	0	Plant response rating, Crabgrass, Large [1, 21]: 0; Plant response rating, Foxtail, Giant [8, 21]: 0; Plant response rating, Barnyardgrass [12, 21]: 0; Morningglory plant response rating [13]: 0; Pigweed plant response rating (0 to 100 scale) [14]: 0; Pigweed plant response rating [14]: 0; Plant response rating, Barnyardgrass [15]: 0; Velvetleaf plant response rating [16]: 0; Plant response rating, Velvetleaf [16]: 0; Crabgrass, Large plant response rating [17]: 0; Plant response rating, Crabgrass, Large [17]: 0; Plant response rating, Corn [18, 21]: 0; Corn plant response rating [18, 22]: 0; Plant response rating, Sedge, Umbrella [19]: 0; Corn plant response rating [20]: 0; Plant response rating, Corn [20]: 0
CC#Cc1cnn(-c2ccccc2Oc2ncc(Cl)cn2)c1 [Compound 189]	100	60	80	20	50	50	100	10	90	0	10	40	80	100	0	100	100	70	90	0	Crabgrass, Large plant response rating (0 to 100 scale) ([1]; 125 g ai/ha): 90; Foxtail, Giant plant response rating (0 to 100 scale) ([8]; 125 g ai/ha): 70; Barnyardgrass plant response rating (0 to 100 scale, 0 is no effect, 100 is complete control) ([12]; 125 g ai/ha): 20; Morningglory plant response rating [13]: 30; Pigweed plant response rating (0 to 100 scale) [14]: 100; Pigweed plant response rating [14]: 100; Plant response rating, Barnyardgrass [15]: 0; Velvetleaf plant response rating [16]: 90; Plant response rating, Velvetleaf [16]: 100; Crabgrass, Large plant response rating [17]: 30; Plant response rating, Crabgrass, Large [17]: 80; Corn plant response rating (0 to 100 scale) ([18]; 125 g ai/ha): 0; Corn plant response rating [18, 22]: 0; Plant response rating, Sedge, Umbrella [19]: 70; Corn plant response rating [20]: 10; Plant response rating, Corn [20]: 40
N#Cc1cc(F)cc(Oc2ncc(Br)cn2)c1-n1cc(Br)cn1 [Compound 239]	100	10	20	0	0	40	40	0	80	0	20	20	70	100	30	90	100	65	100	0	Crabgrass, Large plant response rating (0 to 100 scale) ([1]; 125 g ai/ha): 100; Foxtail, Giant plant response rating (0 to 100 scale) ([8]; 125 g ai/ha): 90; Barnyardgrass plant response rating (0 to 100 scale, 0 is no effect, 100 is complete control) ([12]; 125 g ai/ha): 20; Morningglory plant response rating [13]: 30; Pigweed plant response rating (0 to 100 scale) [14]: 100; Pigweed plant response rating [14]: 100; Plant response rating, Barnyardgrass [15]: 0; Velvetleaf plant response rating [16]: 50; Plant response rating, Velvetleaf [16]: 60; Crabgrass, Large plant response rating [17]: 10; Plant response rating, Crabgrass, Large [17]: 70; Corn plant response rating (0 to 100 scale) ([18]; 125 g ai/ha): 0; Corn plant response rating [18, 22]: 10; Plant response rating, Sedge, Umbrella [19]: 70; Corn plant response rating [20]: 0; Plant response rating, Corn [20]: 20
